The source of these data is US9745283B2, “Uracil derivatives as AXL and c-MET kinase inhibitors” (priority 2011, dated 2017).

The target in the test is recombinant human baculovirus-expressed cMET (Homo sapiens (Human), UniProt P08581). Kind of test: C-MET Kinase Assay (HTRF KinEASE). The format is biochemical. Particulars: average of two or more determinations; read-out: c-MET IC50. On the procedure:
The cMET kinase assay was performed in 384-well Fluotrac™ 200 HiBase microplates using the HTRF KinEASE™ assay described above for AXL except that the assay volume was reduced to half. Enzyme concentration was 8 ng/mL of recombinant human baculovirus-expressed cMET while the substrate concentrations were 0.1 μM and 0.02 μM for the biotinylated peptide and ATP, respectively. Instead of the Multidrop Combi, the BioRAPTR® FRD microfluidic workstation (Beckman Coulter, Brea, Calif.) was utilized for reagent additions.
Inhibition curves for compounds were generated by plotting percent control activity versus log 10 of the concentration of compound. IC50 values were calculated by nonlinear regression using the sigmoidal dose-response (variable slope) equation in GraphPad Prism as follows: y=bottom+(top−bottom)/(1+10(log IC50−x)*Hill Slope) where y is the % kinase activity at a given concentration of compound, x is the logarithm of the concentration of compound, bottom is the % of control kinase activity at the highest compound concentration tested, and top is the % of control kinase activity at the lowest compound concentration examined. The values for bottom and top were fixed at 0 and 100, respectively.

With `COc1cc2nccc(Oc3ccc(NC(=O)c4cn(CCCCO)c(=O)n(-c5ccc(F)cc5)c4=O)cc3F)c2cc1OC` [Example 55, 3-(4-Fluorophenyl)-1-(4-hydroxybutyl)-2,4-dioxo-1,2,3,4-tetrahydropyrimidine-5-carboxylic acid [4-(6,7-dimethoxyquinolin-4-yloxy)-3-fluorophenyl]-amide], the IC50 lay within 10 to 100 nM.
As for `COc1cc2nccc(Oc3ccc(NC(=O)c4cn(C(C)C)c(=O)n(-c5ccc(F)cc5)c4=O)cc3)c2cc1C#N` [Example 56, 3-(4-Fluorophenyl)-1-isopropyl-2,4-dioxo-1,2,3,4-tetrahydropyrimidine-5-carboxylic acid [4-(6-cyano-7-methoxy-quinolin-4-yloxy)-phenyl]-amide], the figure is 10 to 100 nM; as for `CCn1cc(C(=O)Nc2ccc(Oc3ccnc4cc(OC)c(OC)cc34)c(C3CC3)c2)c(=O)n(-c2ccc(F)cc2)c1=O` [Example 59, 1-Ethyl-3-(4-fluoro-phenyl)-2,4-dioxo-1,2,3,4-tetrahydropyrimidine-5-carboxylic acid [3-cyclopropyl-4-(6,7-dimethoxy-quinolin-4-yloxy)-phenyl]-amide], 10 to 100 nM.
For `COc1cc2nccc(Oc3ccc(NC(=O)c4cn(C(C)C)c(=O)n(-c5ccc(F)cc5)c4=O)cc3C3CC3)c2cc1OC` [Example 60, 3-(4-Fluoro-phenyl)-1-isopropyl-2,4-dioxo-1,2,3,4-tetrahydro-pyrimidine-5-carboxylic acid [3-cyclopropyl-4-(6,7-dimethoxy-quinolin-4-yloxy)-phenyl]-amide], the IC50 is 101 to 1000 nM.
The figure for `COc1cc2nccc(Oc3ccc(NC(=O)c4cn(CC(=O)OC(C)(C)C)c(=O)n(-c5ccc(F)cc5)c4=O)cc3F)c2cc1OC` [Example 70, [5-[4-(6,7-Dimethoxy-quinolin-4-yloxy)-3-fluoro-phenylcarbamoyl]-3-(4-fluoro-phenyl)-2,4-dioxo-3,4-dihydro-2H-pyrimidin-1-yl]-acetic acid tert-butyl ester] is 10 to 100 nM; for `COc1cc2nccc(Oc3ccc(NC(=O)c4cn(CCC5CCCCC5)c(=O)n(-c5ccc(F)cc5)c4=O)cc3F)c2cc1OC` [Example 80, 1-(2-Cyclohexyl-ethyl)-3-(4-fluoro-phenyl)-2,4-dioxo-1,2,3,4-tetrahydro-pyrimidine-5-carboxylic acid [4-(6,7-dimethoxy-quinolin-4-yloxy)-3-fluoro-phenyl]-amide] it is 101 to 1000 nM; for `COc1cc2nccc(Oc3ccc(NC(=O)c4cn(CCCc5ccccc5)c(=O)n(-c5ccc(F)cc5)c4=O)cc3F)c2cc1OC` [Example 81, 3-(4-Fluoro-phenyl)-2,4-dioxo-1-(3-phenyl-propyl)-1,2,3,4-tetrahydro-pyrimidine-5-carboxylic acid [4-(6,7-dimethoxy-quinolin-4-yloxy)-3-fluoro-phenyl]-amide] it is 10 to 100 nM.
On to `COc1cc2nccc(Oc3ccc(NC(=O)c4cn(C(C(C)=O)C(=O)N(C)C)c(=O)n(-c5ccc(F)cc5)c4=O)cc3F)c2cc1OC` (stereo not drawn) [Example 84, 1-(1-Dimethylcarbamoyl-2-oxo-propyl)-3-(4-fluoro-phenyl)-2,4-dioxo-1,2,3,4-tetrahydro-pyrimidine-5-carboxylic acid [4-(6,7-dimethoxy-quinolin-4-yloxy)-3-fluoro-phenyl]-amide], for which the IC50 lay in the range of 10 to 100 nM.
Consider `COc1cc2nccc(Oc3c(F)cc(NC(=O)c4c[nH]c(=O)n(-c5ccc(F)cc5)c4=O)cc3F)c2cc1OC` [Example 89, 3-(4-Fluoro-phenyl)-2,4-dioxo-1,2,3,4-tetrahydropyrimidine-5-carboxylic acid [4-(6,7-dimethoxy-quinolin-4-yloxy)-3,5-difluoro-phenyl]-amide], for which the IC50 lay within 101 to 1000 nM.
As for `CCn1cc(C(=O)Nc2ccc(Oc3ccnc4cc(OC)c(OC)cc34)c(F)c2)c(=O)n(CC)c1=O` [Example 93, 1,3-Diethyl-2,4-dioxo-1,2,3,4-tetrahydro-pyrimidine-5-carboxylic acid [4-(6,7-dimethoxy-quinolin-4-yloxy)-3-fluoro-phenyl]-amide], the IC50 lay in the range of 10 to 100 nM.
On to `COc1cc2nccc(Oc3ccc(NC(=O)c4cn(C(C)C)c(=O)n(C(C)C)c4=O)cc3F)c2cc1OC` [Example 94, 1,3-Diisopropyl-2,4-dioxo-1,2,3,4-tetrahydro-pyrimidine-5-carboxylic acid [4-(6,7-dimethoxy-quinolin-4-yloxy)-3-fluoro-phenyl]-amide], for which the IC50 is 10 to 100 nM.
Turning to `COc1cc2nccc(Oc3ccc(NC(=O)c4cn(CC5CC5)c(=O)n(CC5CC5)c4=O)cc3F)c2cc1OC` [Example 95, 1,3-Bis-cyclopropylmethyl-2,4-dioxo-1,2,3,4-tetrahydro-pyrimidine-5-carboxylic acid [4-(6,7-dimethoxy-quinolin-4-yloxy)-3-fluoro-phenyl]-amide], the IC50 fell in the range of 10 to 100 nM.
On to `C=CCn1cc(C(=O)Nc2ccc(Oc3ccnc4cc(OC)c(OC)cc34)c(F)c2)c(=O)n(CC=C)c1=O` [Example 96, 1,3-Diallyl-2,4-dioxo-1,2,3,4-tetrahydro-pyrimidine-5-carboxylic acid [4-(6,7-dimethoxy-quinolin-4-yloxy)-3-fluoro-phenyl]-amide], for which the IC50 was in the range of 10 to 100 nM.
In the case of `COc1cc2nccc(Oc3ccc(NC(=O)c4cn(CC=C(C)C)c(=O)n(CC=C(C)C)c4=O)cc3F)c2cc1OC` [Example 97, 1,3-Bis-(3-methyl-but-2-enyl)-2,4-dioxo-1,2,3,4-tetrahydro-pyrimidine-5-carboxylic acid [4-(6,7-dimethoxy-quinolin-4-yloxy)-3-fluoro-phenyl]-amide], the IC50 fell in the range of 101 to 1000 nM.
With `C#CCn1cc(C(=O)Nc2ccc(Oc3ccnc4cc(OC)c(OC)cc34)c(F)c2)c(=O)n(CC#C)c1=O` [Example 98, 2,4-Dioxo-1,3-di-prop-2-ynyl-1,2,3,4-tetrahydro-pyrimidine-5-carboxylic acid [4-(6,7-dimethoxy-quinolin-4-yloxy)-3-fluoro-phenyl]-amide], the IC50 lay in the range of 10 to 100 nM.
As for `CCOc1cc2nccc(Oc3ccc(NC(=O)c4nn(CC)c(=O)n(-c5ccc(F)cc5)c4=O)cc3F)c2cc1OCC` [Example 109, 2-Ethyl-4-(4-fluorophenyl)-3,5-dioxo-2,3,4,5-tetrahydro[1,2,4]triazine-6-carboxylic acid [4-(6,7-diethoxy-quinolin-4-yloxy)-3-fluoro-phenyl]-amide], the figure is 10 to 100 nM; as for `COc1cc2nccc(Oc3ccc(NC(=O)c4nn(C)c(=O)[nH]c4=O)cc3F)c2cc1OC` [Example 114, 2-Methyl-3,5-dioxo-2,3,4,5-tetrahydro-[1,2,4]triazine-6-carboxylic acid [4-(6,7-dimethoxy-quinolin-4-yloxy)-3-fluoro-phenyl]-amide], 10 to 100 nM.
As for `COc1cc2nccc(Oc3ccc(NC(=O)c4nn(C)c(=O)n(Cc5cc(C)on5)c4=O)cc3F)c2cc1OC` [Example 116, 2-Methyl-4-(5-methyl-isoxazol-3-ylmethyl)-3,5-dioxo-2,3,4,5-tetrahydro-[1,2,4]triazine-6-carboxylic acid [4-(6,7-dimethoxy-quinolin-4-yloxy)-3-fluoro-phenyl]-amide], the figure is 10 to 100 nM; as for `CCC#CCn1c(=O)c(C(=O)Nc2ccc(Oc3ccnc4cc(OC)c(OC)cc34)c(F)c2)nn(C)c1=O` [Example 117, 2-Methyl-3,5-dioxo-4-pent-2-ynyl-2,3,4,5-tetrahydro-[1,2,4]triazine-6-carboxylic acid [4-(6,7-dimethoxy-uinolin-4-yloxy)-3-fluoro-phenyl]-amide], 101 to 1000 nM.
Regarding `COc1cc2nccc(Oc3ccc(NC(=O)c4nn(C)c(=O)n(CC#CCO)c4=O)cc3F)c2cc1OC` [Example 118, 4-(4-Hydroxy-but-2-ynyl)-2-methyl-3,5-dioxo-2,3,4,5-tetrahydro-[1,2,4]triazine-6-carboxylic acid [4-(6,7-dimethoxy-quinolin-4-yloxy)-3-fluoro-phenyl]-amide], the IC50 lay within 101 to 1000 nM.
The figure for `COc1cc2nccc(Oc3ccc(NC(=O)c4nn(C)c(=O)n(CCn5cccn5)c4=O)cc3F)c2cc1OC` [Example 120, 2-Methyl-3,5-dioxo-4-(2-pyrazol-1-yl-ethyl)-2,3,4,5-tetrahydro-[1,2,4]triazine-6-carboxylic acid [4-(6,7-dimethoxyquinolin-4-yloxy)-3-fluorophenyl]-amide] is 10 to 100 nM; for `CCn1c(=O)c(C(=O)Nc2ccc(Oc3ccnc4cc(OC)c(OC)cc34)c(F)c2)nn(C)c1=O` [Example 123, 4-Ethyl-2-methyl-3,5-dioxo-2,3,4,5-tetrahydro-[1,2,4]triazine-6-carboxylic acid [4-(6,7-dimethoxyquinolin-4-yloxy)-3-fluoro-phenyl]-amide] it is 101 to 1000 nM.
Consider `C=CCn1c(=O)c(C(=O)Nc2ccc(Oc3ccnc4cc(OC)c(OC)cc34)c(F)c2)nn(C)c1=O` [Example 124, 4-Allyl-2-methyl-3,5-dioxo-2,3,4,5-tetrahydro-[1,2,4]triazine-6-carboxylic acid [4-(6,7-dimethoxy-quinolin-4-yloxy)-3-fluoro-phenyl]-amide], for which the IC50 fell in the range of 10 to 100 nM.
Turning to `COc1cc2nccc(Oc3ccc(NC(=O)c4nn(CC5CC5)c(=O)n(-c5ccc(F)cc5)c4=O)cc3F)c2cc1OC` [Example 133, 2-Cyclopropylmethyl-4-(4-fluorophenyl)-3,5-dioxo-2,3,4,5-tetrahydro-[1,2,4]triazine-6-carboxylic acid [4-(6,7-dimethoxy-quinolin-4-yloxy)-3-fluoro-phenyl]-amide], the IC50 fell in the range of 10 to 100 nM.
